Experimental findings from ChEMBL document CHEMBL1141041, “Discovery of halogenated eurypamide B analogues as inhibitors of lipid droplet accumulation in macrophages” (Bioorg Med Chem Lett, 2005) are described below.

One may read the IC50 as the concentration at which inhibition is half-maximal.

The nature of this assay: Inhibition of lipid droplets accumulation in mouse peritoneal macrophages as a model of macrophage-derived foam-cell formation. It is filed as functional.

As to `C[C@@H](OCc1ccccc1)C1NC(=O)[C@@H](NC(=O)Oc2ccccc2)Cc2ccc(O)c(c2)Oc2ccc(cc2)C[C@@H](C(=O)O)NC1=O` (stereo partly specified), the IC50 is 3.1 µM. This lies in the single-digit micromolar range.
With `C[C@@H](O)C1NC(=O)[C@@H](NC(=O)OC(C)(C)C)Cc2ccc(O)c(c2)Oc2ccc(cc2)C[C@@H](C(=O)O)NC1=O` (stereo partly specified), the IC50 is more than 12.1 µM.
For `COC(=O)[C@@H]1Cc2ccc(cc2)Oc2cc(ccc2O)C[C@H](N)C(=O)N[C@@H]([C@@H](C)O)C(=O)N1`, the IC50 was more than 13.5 µM.
Turning to `C[C@@H](O)[C@@H]1NC(=O)[C@@H](N)Cc2ccc(O)c(c2)Oc2ccc(cc2)C[C@@H](C(=O)O)NC1=O`, the IC50 was more than 22.6 µM.
Next, `C[C@@H](OCc1ccccc1)C1NC(=O)[C@@H](NC(=O)OC(C)(C)C)Cc2ccc(O)c(c2)Oc2ccc(cc2)C[C@@H](C(=O)O)NC1=O` (stereo partly specified): 3.2 µM; `COC(=O)[C@@H]1Cc2ccc(cc2)Oc2cc(ccc2O)C[C@H](N)C(=O)NC([C@@H](C)OCc2ccccc2)C(=O)N1` (stereo partly specified): more than 12.1 µM.
